Results on 93 molecules are retold here after PubChem BioAssay AID463229 (Broad Institute, 2010).

SMILES strings stand for the structures. Activity calls are given as the source filed them.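 Rule for the calls: active = compounds raising the signal whose fitted half-maximal concentration is at or below their top tested dose (cut at about 25 µM in these data); inconclusive = flat fit at 30 to 70% activity, or a poor fit; inactive = the rest.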

In this experiment the test system is INS-1E rat beta cells, no cytokines, CellTiter-Glo ATP, 48 h. The experiment can be described thus: cytokine-free beta-cell viability effect – INS-1E rat cells, ATP luminescence, cherry pick, counter-screen for beta-cell apoptosis protection project, dose response (AID 463229).
For the molecule `O=C(/C(N=Nc1cccc([N+](=O)[O-])c1)=C(/O)c1ccc(Br)cc1)C(F)(F)F`, the AC50 is 6.66 µM.

`CC1(C)CC(N2CCN(c3ccccc3)CC2)=CC(=[N+]2CCCC2)C1`: the AC50 was 1.79 µM. Turning to `O=C(Nc1nc2c(F)cc(F)cc2s1)c1ccccn1`, the AC50 is 6.37 µM. Next, `COc1cc2nc(N3CCN(c4cc(C)ccc4C)CC3)nc(N)c2cc1OC`: 6.91 µM; `O=C(NNc1c(Cl)cc(Cl)cc1Cl)c1cccc([N+](=O)[O-])c1`: 3.08 µM. Next, `CCC(C)Nc1nc(-c2ccccn2)nc2ccccc12` (stereo not drawn): 9.01 µM; `Clc1ccc(-c2cc(-c3nnc4n3CCCCC4)c3ccccc3n2)cc1`: 4.91 µM. `C#CCOCCOCCOCCNc1nc(N2CCN(C(=O)CCCCCCCCCCNC(=O)[C@H](CCCCN)n3cc(C[C@@H](C)CC)nn3)CC2)nc(N2CCN(C(=O)CCCCCCCCCCNC(=O)[C@@H]([C@H](C)O)n3cc(C)nn3)CC2)n1`: the AC50 was 6.91 µM. Next, `CCCCSc1nc2sc3c(c2c(=O)n1-c1ccc(C)cc1)CCN(C)C3`: 22.4 µM; `COC(=O)c1cc(C)nc2c1C(=O)C(=O)C=C2N1CCOCC1`: 4.66 µM; `O=C(CCC(=O)Nc1ccc(Cl)cc1Cl)N/N=C/c1ccc([N+](=O)[O-])o1`: 13.8 µM.

`COc1ccc(-n2cc(-c3ccc(OC(F)F)cc3)[n+]3c2CCCCC3)cc1`: the AC50 was 2.07 µM. Next, `COc1cc(OC)c2cc(C(=O)N/N=C/c3ccccc3O)[nH]c2c1`: 8.48 µM; `COC(=O)[C@H](Cc1ccccc1)N(Cc1ccccc1)S(=O)(=O)N(Cc1ccccc1)[C@@H](Cc1ccccc1)C(=O)OC`: 4.38 µM; `CCCCCc1cc(=O)oc2c(C(CCN3CCCC(C)C3)c3ccc(OC)cc3)c(OC)cc(OC)c12` (stereo not drawn): 14.2 µM. Next, `CC(=O)Nc1ccc(NC(=O)CN(c2cccc([N+](=O)[O-])c2)S(C)(=O)=O)cc1`: 6.49 µM; `C/C(=N\NC(=O)C(=O)Nc1cccc(Cl)c1)c1ccncc1`: 6.53 µM; `COc1ccc(-[n+]2c(-c3ccccc3)cc(-c3ccccc3)cc2-c2ccccc2)cc1`: 1.71 µM.

For `CCN1CCN(C2=C(NS(=O)(=O)c3ccccc3)C(=O)c3ccccc3C2=O)CC1`, the AC50 is 20.3 µM.

Turning to `CCCCC(=O)NC(c1cccs1)c1cc(Cl)c2cccnc2c1O` (stereo not drawn), the AC50 is 5.89 µM.

For the molecule `CC(C)(C)n1nnnc1C(c1ccc(F)cc1)N(Cc1ccc(F)cc1)Cc1ccco1` (stereo not drawn), the AC50 is 9.25 µM. Next, `Cc1cc(C)nc(SCC(=O)NC2=NN=C(c3ccc(Br)cc3)CS2)n1`: 2.52 µM.

Take `COc1ccc2c(c1)C(=O)[C@H](O)[C@@H](c1ccc(OC)c(Br)c1)O2`: the AC50 is 7.97 µM.

Take `CCC(=O)NC(c1ccc(C)cc1)c1cc(Cl)c2cccnc2c1O` (stereo not drawn): the AC50 is 7.97 µM. Next, `O=C(N/N=C(\c1ccccc1)c1ccccn1)c1cccc([N+](=O)[O-])c1`: 2.11 µM. As to `COC(=O)c1c(C)oc2ccc(N(C(=O)c3ccncc3)S(=O)(=O)c3ccc4ccccc4c3)cc12`, the AC50 is 17.9 µM. Next, `COc1ccc(-c2cn(Cc3ccc(C(=O)c4ccccc4)cc3)nn2)cc1`: 11.6 µM. Next, `C=CCNC(=S)N/N=C(\C)c1ccccn1`: 1.22 µM; `COc1ccc(-c2cc(-c3ccccc3)[n+](C)c(-c3ccccc3)c2)cc1`: 4.28 µM; `CCOc1ccc(-c2csc(/C(C#N)=C\c3ccc(O)c([N+](=O)[O-])c3)n2)cc1`: 4.57 µM. Turning to `CC(C)CN(C(=O)COC(=O)C12CC3CC(CC(Cl)(C3)C1)C2)c1c(N)n(Cc2ccccc2)c(=O)[nH]c1=O`, the AC50 is 6.97 µM. For `CCCOc1ccc(Br)cc1CSC(=N)N`, the AC50 is 8.01 µM. On to `O=C(NCc1cccnc1)Nc1ccc([N+](=O)[O-])cc1`, for which the AC50 was 11.8 µM. Next, `O=C(COc1ccc2ccccc2c1)N1CCN(Cc2c[nH]c3ccccc23)CC1`: 2.8 µM; `C1CCC(C(CC2CCCCN2)C2CCCCC2)CC1` (stereo not drawn): 9.74 µM; `CN(C)S(=O)(=O)c1ccc(Oc2ccc(S(=O)(=O)N(C)C)cc2)cc1`: 9.29 µM.

Regarding `CC1(C)C(C=C(Cl)Cl)C1C(=O)Nc1ccc([N+](=O)[O-])cc1` (stereo not drawn), the AC50 is 7.7 µM. Next, `O=C1C=C(N2CCOCC2)c2ccccc2C1=O`: 6.13 µM; `COc1cc(NC(C)CCCN)c2ncccc2c1` (stereo not drawn): 13.8 µM; `O=C(CCCc1nc(-c2ccc(Cl)cc2)no1)NC1CCCC1`: 13.5 µM. Next, `O=C(N/N=C/c1ccccc1O)/C(=C/c1ccccc1)CCO`: 7.67 µM; `COC(=O)c1ccccc1NC1=C/C(=N\S(=O)(=O)c2ccc(C(=O)O)cc2)c2ccccc2C1=O`: 9.17 µM.

Consider `CC1=NNC(=O)/C1=C\c1cn(-c2ccccc2)nc1-c1ccc(Cl)cc1`, for which the AC50 is 10.9 µM. Next, `Cc1cc(-c2ccccc2)cc(C)[n+]1Cc1ccccc1`: 0.667 µM; `Oc1c(C(Nc2cccc(C(F)(F)F)c2)c2ccncc2)ccc2cccnc12` (stereo not drawn): 6.84 µM; `COc1cc(C)c(C(=O)CC(=O)c2c(C)cc(OC)cc2C)c(C)c1`: 13.7 µM.

In the case of `COCCC1CCCCN1C(=O)c1cc(COc2ccc(-n3cncn3)cc2)on1` (stereo not drawn), the AC50 was 6.35 µM. Next, `Cc1cc(Nc2cccc(F)c2)nc(NCc2ccccc2)n1`: 5.15 µM. Next, `CN(C)c1cc[n+](CC(=O)Nc2ccc(Oc3ccccc3)cc2)cc1`: 2.36 µM.

Take `O=C(C[C@@H]1C/C=C/CC[C@H](Cc2ccc(F)cc2)C(=O)OC[C@@H](Cc2ccccc2)NC1=O)N[C@H](CO)Cc1ccccc1`: the AC50 was 7.82 µM.

Take `COc1cc(OC)c2cc(C(=O)N/N=C/c3cccc(OC)c3O)[nH]c2c1`: the AC50 was 15.5 µM.

For `CN(C)c1nc(N/N=C/c2ccccc2O)nc(Nc2ccc(F)cc2)n1`, the AC50 was 11.3 µM. Turning to `COc1ccccc1N1CCN(c2ncc(C(=O)N3CCN(c4cccc(Cl)c4)CC3)c3ccccc23)CC1`, the AC50 is 4.69 µM. As for `COC(=O)c1nc(-c2ccc3c(n2)C(=O)C(N)=C(OC)C3=O)c(N)c(-c2ccc(OC)c(OC)c2O)c1C`, the AC50 is 6.46 µM. Next, `COc1ccc(-c2nn(-c3ccccc3)cc2C(=O)OCC(=O)c2ccc(C)c([N+](=O)[O-])c2)cc1`: 0.866 µM; `NS(=O)(=O)c1ccc(N/N=C2/CCCCC2C2CCCCC2)c([N+](=O)[O-])c1` (stereo not drawn): 8.1 µM. Regarding `CNc1nc2cc([N+](=O)[O-])c([N+](=O)[O-])cc2nc1NC`, the AC50 was 0.278 µM.

For the molecule `CC(C)(C)C1C/C(=C/c2ccccn2)C(=O)/C(=C/c2ccccn2)C1` (stereo not drawn), the AC50 was 0.672 µM.

For `COc1cc(/C=N/NC(=O)c2cccnc2)ccc1OC(=O)c1cc(OC)c(OC)c(OC)c1`, the AC50 is 2.51 µM. Next, `Cc1nc2ccc(NC(=O)c3cc(S(=O)(=O)N(C)c4ccccc4)ccc3Cl)cc2s1`: 2.8 µM.

With `O=C(Nc1nc2ccccc2[nH]1)c1ccccc1F`, the AC50 is 2.14 µM.

With `COc1ccc(-c2n(Cc3ccccc3)c3ccccc3[n+]2Cc2ccccc2)cc1`, the AC50 is 3.95 µM. Next, `Cc1ccc(C(=O)c2c(C)oc3c2C(=O)C(=O)c2ccccc2-3)cc1`: 2.92 µM; `Cc1ccccc1NC1=C/C(=N\S(=O)(=O)c2ccc(C(=O)O)cc2)c2ccccc2C1=O`: 12 µM. Next, `CC1(C)Cc2c(c(N3CCOCC3)nc3sc4c(NN)ncnc4c23)CS1`: 6.38 µM; `NC(=O)c1ccc(N2CCN(S(=O)(=O)c3cccs3)CC2)c([N+](=O)[O-])c1`: 6.36 µM; `c1ccc(/N=C2\N=C(Nc3ccccn3)c3ccccc32)nc1`: 5.52 µM. Next, `C(#Cc1ccccc1)C[N+]1(CC#Cc2cccc3ccccc23)CCCC1`: 8.17 µM. In the case of `CCN(CC)c1ccc(/C=N/Nc2nc(C)cc(C)n2)c(O)c1`, the AC50 was 15.8 µM.

Turning to `COc1nnc(-c2ccc(N3CCCCC3)c(NC(=O)C3CCCCC3)c2)c2ccccc12`, the AC50 was 5.25 µM. Regarding `Cc1[nH]c2c(ccc3ccccc32)c1C1C(CCN)C1(C)C` (stereo not drawn), the AC50 is 14.6 µM.

`c1ccc(C2(Cn3ccc4ccccc43)OCCO2)cc1`: the AC50 is > 26 µM (inactive). Regarding `Cc1cc2c(NCCc3ccccc3)ncnc2s1`, the AC50 is 2.95 µM. Next, `CC(C)(C)c1ccc(C2CC2C(=O)N/N=C\c2ccc[nH]2)cc1` (stereo not drawn): 0.987 µM.

Regarding `O=C(NC(Nc1nc2ccc([N+](=O)[O-])cc2s1)(C(F)(F)F)C(F)(F)F)c1cccnc1`, the AC50 was 2.58 µM. Next, `O=[N+]([O-])c1cccc2c(N3CCCC3)ccnc12`: 7.28 µM. Next, `CCCC12C(=O)C(C)(C(c3ccccc3)=C1c1ccccc1)C1C(=O)N(c3ccc(C)cc3)C(=O)C12` (stereo not drawn): 4.4 µM; `COc1cccc(/C=N/NC(=O)c2cc(-c3ccccn3)nc3ccccc23)c1O`: 7.61 µM. Next, `CCN(CC)CCN1c2ccccc2Sc2ccc3ccccc3c21`: 18.1 µM; `N/C(=N\OC(=O)c1cccc(Cn2cc(C(F)(F)F)ccc2=O)c1)c1ccc(Cl)cc1`: 8.25 µM; `N=c1c2c(n(Cc3cccc(Cl)c3)c3c1CCC3)CCCC2`: 7.28 µM. For `NC1=NC[C@H](Cc2ccc(O)cc2)N1CCCCC1CCCCC1`, the AC50 is 2.34 µM. Next, `Cn1cc(CNCc2ccc(OC(F)(F)F)cc2)c(-c2ccc3c(c2)OCCO3)n1`: 3.64 µM; `COc1cc(N/N=C/c2ccccc2O)ncn1`: 16.2 µM; `CC(=O)c1cccc(N=c2scc(-c3ccc(S(=O)(=O)N4CCOCC4)cc3)n2CCO)c1`: 3.22 µM. Next, `N#Cc1c([N+](=O)[O-])cc([N+](=O)[O-])cc1S(=O)(=O)Cc1ccccc1`: 4.91 µM; `C/C(=N\NC(=O)COc1ccccc1-c1ccccc1)c1ccccn1`: 6.13 µM; `N#Cc1c(Cl)nsc1NC(=O)c1ccccc1`: 8.12 µM.

For `COc1ccc(OC)c(NC(=O)c2nc(S(=O)(=O)Cc3ccccc3)ncc2Cl)c1`, the AC50 is 7.87 µM. Next, `Cc1cc(N2CCN(C)CC2)ccc1NC(=O)c1c2c(nc3ccccc13)CCN(Cc1ccccc1)C2`: 8 µM. Next, `Cc1sc2ncnc(N/N=C/c3ccccc3O)c2c1C`: 3.03 µM; `N=c1c2ccccc2nc2n1CCCCCCCCCCC2`: 13.9 µM; `CCOC(=O)c1ccc(NC(=O)c2cccnc2)cc1`: 6.64 µM.
